Where two headings read alike, the source gives them in different places.
Experiments:
[1] = target: T1, α1A Human Adrenergic Receptor (Homo sapiens, UniProt P25100); assay: Radioligand binding, [3H]prazosin, cloned human α1A adrenergic receptor; settings: [3H]prazosin, cloned human α1A receptor, LM(tk−) cell membranes
T1 construct: The entire coding region of α1A (1719 bp); expressed in transfected cells
T1 sequence (P25100 1-572): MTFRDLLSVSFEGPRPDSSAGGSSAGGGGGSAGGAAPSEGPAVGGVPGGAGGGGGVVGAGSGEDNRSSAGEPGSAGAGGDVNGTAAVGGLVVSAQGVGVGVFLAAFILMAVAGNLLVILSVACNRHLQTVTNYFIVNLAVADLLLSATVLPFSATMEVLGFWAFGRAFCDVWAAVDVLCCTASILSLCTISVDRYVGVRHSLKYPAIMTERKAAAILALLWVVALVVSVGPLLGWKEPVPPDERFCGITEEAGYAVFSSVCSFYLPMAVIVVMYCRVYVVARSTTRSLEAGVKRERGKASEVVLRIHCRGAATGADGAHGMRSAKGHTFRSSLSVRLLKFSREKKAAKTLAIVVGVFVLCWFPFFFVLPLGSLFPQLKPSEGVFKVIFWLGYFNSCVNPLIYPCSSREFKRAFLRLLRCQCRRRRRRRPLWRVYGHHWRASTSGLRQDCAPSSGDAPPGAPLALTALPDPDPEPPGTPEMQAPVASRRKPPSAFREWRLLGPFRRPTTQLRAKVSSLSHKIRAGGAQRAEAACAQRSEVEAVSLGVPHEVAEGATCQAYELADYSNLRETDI
How it was run: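 Membranes from LM(tk−) cells transfected with cloned human α1A receptor, prepared in 50 mM Tris-HCl, 1 mM MgCl2, 0.1% ascorbic acid pH 7.5, were incubated with 0.5 nM [3H]prazosin at 37° C for 20 min. Nonspecific binding was defined with 10 μM phentolamine; bound ligand was separated by GF/B filtration.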

[2] = target: T2, α1B Human Adrenergic Receptor (Homo sapiens, UniProt P35368); assay: Radioligand binding, [3H]prazosin, cloned human α1B adrenergic receptor; settings: cloned human α1B receptor, LM(tk−) cell membranes
T2 construct: The entire coding region of α1B (1563 bp); expressed in transfected cells
T2 sequence (P35368 1-520): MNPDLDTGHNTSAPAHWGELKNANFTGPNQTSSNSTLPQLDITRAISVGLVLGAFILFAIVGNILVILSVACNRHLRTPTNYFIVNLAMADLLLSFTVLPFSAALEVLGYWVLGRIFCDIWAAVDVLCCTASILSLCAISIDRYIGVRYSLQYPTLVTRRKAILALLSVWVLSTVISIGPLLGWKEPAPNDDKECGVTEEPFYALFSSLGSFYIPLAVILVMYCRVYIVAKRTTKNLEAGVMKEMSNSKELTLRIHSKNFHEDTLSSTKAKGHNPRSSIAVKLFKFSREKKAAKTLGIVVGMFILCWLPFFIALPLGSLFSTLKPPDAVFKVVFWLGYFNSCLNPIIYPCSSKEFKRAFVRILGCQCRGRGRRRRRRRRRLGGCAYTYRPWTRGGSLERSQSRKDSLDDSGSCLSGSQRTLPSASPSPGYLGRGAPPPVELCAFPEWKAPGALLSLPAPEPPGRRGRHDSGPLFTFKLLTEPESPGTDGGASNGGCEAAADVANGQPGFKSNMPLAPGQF
How it was run: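 Membranes from stably transfected LM(tk−) cells, resuspended in 50 mM Tris-HCl, 1 mM MgCl2, 0.1% ascorbic acid, pH 7.5, were incubated with 0.5 nM [3H]prazosin for 20 min at 37° C. Nonspecific binding defined with 10 μM phentolamine; bound ligand separated by GF/B filtration.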

α2A receptor = target: T3, α2A receptor (Homo sapiens, UniProt P08913); assay: Competition binding, [3H]rauwolscine, human α2A receptor; settings: [3H]rauwolscine, human α2A receptor, LM(tk−) cells; for Ki: read-out: pKi alpha-2 2a (converted)
T3 construct: host or cells: LM(tk-) cells, line L-α2A
T3 sequence (P08913 1-465): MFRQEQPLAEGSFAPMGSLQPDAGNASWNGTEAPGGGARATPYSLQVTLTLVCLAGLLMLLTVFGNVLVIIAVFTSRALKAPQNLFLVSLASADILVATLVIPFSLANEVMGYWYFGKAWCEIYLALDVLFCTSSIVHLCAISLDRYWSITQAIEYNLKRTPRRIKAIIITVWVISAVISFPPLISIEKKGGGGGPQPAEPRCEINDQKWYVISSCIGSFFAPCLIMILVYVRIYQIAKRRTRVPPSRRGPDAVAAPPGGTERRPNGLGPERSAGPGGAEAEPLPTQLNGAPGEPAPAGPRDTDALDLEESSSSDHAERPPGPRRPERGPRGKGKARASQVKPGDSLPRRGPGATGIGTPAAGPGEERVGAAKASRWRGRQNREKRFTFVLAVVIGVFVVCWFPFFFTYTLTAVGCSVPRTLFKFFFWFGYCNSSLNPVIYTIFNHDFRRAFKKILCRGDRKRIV
How it was run: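 Lysates of LM(tk−) cells stably expressing human α2A, α2B or α2C receptors in 25 mM glycylglycine pH 7.6. Equilibrium competition against 0.5 nM [3H]rauwolscine, with 10 μM phentolamine defining nonspecific binding. Bound ligand separated by GF/B filtration.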

[3] = read-out: pKi alpha-1 1a (converted)
[4] = read-out: pKi alpha-1 1b (converted)

Row | Structure (SMILES) | Ki ([1]; pKi alpha-1 1a) [nM] | Ki ([2]; pKi alpha-1 1b) [nM] | Ki (α2A receptor) [nM] | Ki [1, 3] [nM] | Ki [2, 4] [nM] | pKi alpha-1 1b [2] | pKi alpha-2 2a (α2A receptor)
1 | CC1=C(C(N)=O)C(c2ccc(S(C)(=O)=O)cc2)C(C(=O)NCCCN2CCC(c3ccccc3)(c3ccccc3)CC2)=C(C)N1 (stereo not drawn) [Example 115, 5-Carboxamido-1,4-4-dihydro-4-(4-methanesufonylphenyl)-2,6-dimethyl-3-(N-(3-(4,4-diphenylpiperidin-1-yl)propyl)carboxamido)-pyridine] | 2000 | 1450 | 3980 |  |  |  | 
2 | CCC1=C(C(N)=O)C(c2ccc(S(C)(=O)=O)cc2)C(C(=O)NCCCN2CCC(c3ccccc3)(c3ccccc3)CC2)=C(CC)N1 (stereo not drawn) [Example 116, 5-Carboxamido-2,6-diethyl-1,4-dihydro-4-(4-methanesulfonylphenyl)-3-(N-(3-(4,4-diphenylpiperidin-1-yl)propyl)carboxamido)-pyridine] | 186 | 759 | 1450 |  |  |  | 
3 | COc1cccc(C2C(C(N)=O)=C(C)NC(C)=C2C(=O)NCCCN2CCC(c3ccccc3)(c3ccccc3)CC2)c1 (stereo not drawn) [Example 117, 5-Carboxamido-1,4-dihydro-4-(3-Methoxyphenyl)-2,6-dimethyl-3-(N-(3-(4,4-diphenylpiperidin-1-yl)propyl)carboxamido)-pyridine] | 2090 | 562 | 955 |  |  |  | 
4 | CCC1=C(C(N)=O)C(c2ccc(S(C)(=O)=O)cc2)C(C(=O)NCCCN2CCC(c3ccccc3)(c3ccccc3)CC2)=C(C)N1 (stereo not drawn) [Example 118, 3-Carboxamido-2-ethyl-1,4-dihydro-4-(4-methanesulfonylphenyl)-6-methyl-3-(N-(3-(4,4-diphenylpiperidin-1-yl)propyl)carboxyamido)-pyridine] | 2190 | 1780 | 3890 |  |  |  | 
5 | CCC1=C(C(N)=O)C(c2ccc([N+](=O)[O-])cc2)C(C(=O)NCCCN2CCN(c3ccccc3OC)CC2)=C(CC)N1 (stereo not drawn) [Example 125, 5-Carboxamido-2,6-diethyl-1,4-dihydro-3-(N-{3-[4-(2-methoxyphenyl)piperazin-1-yl]propyl})carboxamido-4-(4-nitrophenyl)pyridine] |  |  | 26.9 | 77.6 | 129 |  | 
6 | CC(C)C1=C(C(N)=O)C(c2ccc([N+](=O)[O-])cc2)C(C(=O)NCCCN2CCC(c3ccccc3)(c3ccccc3)CC2)=C(C(C)C)N1 (stereo not drawn) [Example 127] | 355 |  |  |  |  | 6.79 | 6.17
7 | CCC1=C(C(=O)NC)C(c2ccc([N+](=O)[O-])cc2)C(C(=O)NCCCN2CCC(c3ccccc3)(c3ccccc3)CC2)=C(CC)N1 (stereo not drawn) [Example 128, 2,6-Diethyl-1,4-dihydro-5-(N-methyl)carboxamido-4-(4-nitrophenyl)-3-{N-[3-(4,4-diphenylpiperidin-1-yl)propyl]}carboxamidopyridine] | 977 | 1050 | 457 |  |  |  | 
8 | CCC1=C(C(=O)OCCC#N)C(c2ccc([N+](=O)[O-])cc2)C(C(=O)NCCCN2CCC(c3ccccc3)(c3ccccc3)CC2)=C(COC)N1 (stereo not drawn) [Example 135] |  |  | 661 | 501 | 178 |  | 
9 | CCC1=C(C(=O)NCCCN2CCC(c3ccccc3)(c3ccccc3)CC2)C(c2ccc([N+](=O)[O-])cc2)C(C(=O)OC(C)(C)C)=C(COCCN=[N+]=[N-])N1 (stereo not drawn) [Example 139] | 479 | 141 | 832 |  |  |  | 
10 | CCC1=C(C(=O)OCCC#N)C(c2ccc([N+](=O)[O-])cc2)C(C(=O)NCCCN2CCC(c3ccccc3)(c3ccccc3)CC2)=C(COCCN=[N+]=[N-])N1 (stereo not drawn) [Example 141] | 50.1 | 33.1 | 603 |  |  |  | 
11 | CCNC(=O)C1=C(COCCN=[N+]=[N-])NC(CC)=C(C(=O)NCCCN2CCC(c3ccccc3)(c3ccccc3)CC2)C1c1ccc([N+](=O)[O-])cc1 (stereo not drawn) [Example 147, 2-((2-Azidoethyl)oxy)methyl-6-ethyl-3-(N-ethyl)carboxamido-1,4-dihydro-4-(4-nitro)phenyl-5-(N-(3-(4,4-diphenylpiperidin-1-yl-)propyl))carboxamidopyridine] | 372 | 257 | 871 |  |  |  | 
